Source: patent US12043670B2, “Anti-BCMA antibody-drug conjugates and methods of use” (Eisai R&D Management Co., Ltd., priority 2020, dated 2024)

Columns and labels:
Caco-2 permeability = assay type: in vitro ADME; conditions: human
Description: Caco-2 cells were cultured for 21 days in transwell 24-well plates at 37° C., 95% humidity, 5% CO2. Integrity of cell monolayer was confirmed by TEER (transepithelial electrical resistance) and Lucifer yellow. Payloads were spiked in duplicate at 10 μM, separately, on both sides of the cell monolayer. Permeability rates from the apical to basolateral (A-B) direction and the basolateral to apical (B-A) direction were determined by sampling aliquots from both chambers immediately after treatment (t=0) and following incubation for 2 hours. Samples were protein precipitated with organic solvent containing internal standard and analyzed by LC-MS/MS (SCIEX; API 5500). The area ratio responses of payload/internal standard over time in both directions were used to generate permeability (cm/sec) values. Efflux ratio was calculated by dividing B-A/A-B. Control compounds for low and high permeability and efflux behaved as expected.

U266B1 cells = assay: 6-day CellTiter-Glo cell viability, U266B1; assay type: cell-based, human

Q: For CC[C@H](O)[C@@H](C)[C@H]1O[C@@H]1C[C@@](C)(O)/C=C/C=C(\C)[C@H]1OC(=O)C[C@H](O)CC[C@@](C)(O)[C@@H](OC(=O)N2CCNCC2)/C=C/[C@@H]1C [D1, (2S,3S,6S,7R,10R,E)-7,10-dihydroxy-2-((R,2E,4E)-6-hydroxy-7-((2R,3R)-3-((2R,3S)-3-hydroxypentan-2-yl)oxiran-2-yl)-6-methylhepta-2,4-dien-2-yl)-3,7-dimethyl-12-oxooxacyclododec-4-en-6-yl piperazine-1-carboxylate], which efflux ratio at 2 h, 10 μM (Caco-2 permeability; B-A/A-B) is on record?
A: Its efflux ratio at 2 h, 10 μM is 1.5.

Q: And the Papp A→B at 2 h, 10 μM (Caco-2 permeability; apical to basolateral, 10 μM, 2 hours, read-out: Permeability, Mean, Caco-2 A-B Perm)?
A: Its Papp A→B at 2 h, 10 μM is 0.2 ×10⁻⁶ cm/s.

Q: What about the Papp B→A at 2 h, 10 μM (Caco-2 permeability; basolateral to apical, 10 μM, 2 hours, read-out: Permeability, Mean, Caco-2 B-A Perm) of the same compound?
A: Its Papp B→A at 2 h, 10 μM is 0.3 ×10⁻⁶ cm/s.

Q: What about the GI50 (U266B1 cells; Homo sapiens, 144 h) of the same compound?
A: The GI50 was 238 nM.

Q: And the “AUC (nM * % relative viability)” value (U266B1 cells; U266B1 cells, 6 days)?
A: Its value is 712.6903 nM * % relative viability.

Q: What about the LD50 (U266B1 cells; U266B1 cells, 6 days, CellTiter-Glo) of the same compound?
A: Its LD50 is 504.8119 nM.

Q: What about the RminAve (U266B1 cells; U266B1 cells, 6 days, negative = cell death vs T0) of the same compound?
A: The RminAve was −94.2191%.
